Like-named read-outs stand apart in the source and are kept apart here. A value given as a limit tells only on which side of the number the result lay.

Data set [1] deals with Trypomastigote forms of T. cruzi (Y strain). The experiment in a line: Activity against trypomastigotes (viable parasite count). The class given is cell-based, Trypanosoma cruzi. The settings on record: for EC50: read-out: Trypomastigote EC50 ± SEM. As for the experimental part:
All experiments were performed with the Y strain of T. cruzi. Trypomastigote forms of T. cruzi were obtained from the supernatant of infected LLC-MK2 cells and maintained in DMEM supplemented with 10% FBS and Penicillin-Streptomycin (100 U/mL) (all from Gibco/Life Technologies) at 37 °C with 5% CO2.
Trypomastigotes were incubated in 96-well plates (2 × 10^6 cells/mL) in DMEM, in the presence or absence of the compounds at different concentrations for 24 h. […] Each compound concentration was tested in triplicate, and three independent experiments were performed. The reference drug, benznidazole, was used as the positive control.

Data set [2] concerns intracellular amastigotes of T. cruzi in infected hFIB. The experiment in a line: In vitro T. cruzi infection assay (intracellular amastigotes in hFIB, high content imaging). Format: cell-based, Trypanosoma cruzi. The settings on record: read-out: Amastigote EC50 ± SEM. As for the experimental part:
All experiments were performed with the Y strain of T. cruzi. […] The culture was washed with saline solution and infected with trypomastigotes (10 parasites:1 host cell). Following 24 h of incubation, the non-internalized parasites were removed by washing with saline solution, and fresh medium, with or without compounds at different concentrations, was added to the culture before the incubations proceeded for 72 h. Cells were then fixed and stained by the addition of 50 μL of a solution containing 4% paraformaldehyde and 4 μM Draq5 DNA dye (BioStatus, Shepshed, UK) per well. Plates were imaged in an Operetta High Content Imaging System (PerkinElmer, Waltham, MA, USA) confocal microscope using a 10X air objective. Nine images were collected from each well for reliable statistical analysis. The percentage of intracellular parasites was determined and compared to the negative control, and compound antiparasitic activity was also expressed as EC50. The reference drug, benznidazole, was used as the positive control at 50 µM. Each drug concentration was carried out in triplicate.

For data set [3], the system named is Human primary skin fibroblasts (hFIB). Put plainly: Host cell toxicity (AlamarBlue). The class given is cell-based. The settings on record: for hFIB CC50 ± SEM: hFIB viability 72 h after treatment. The procedure: (§1) Human primary skin fibroblasts (hFIB) were obtained from patient skin biopsy and cultured in Dulbecco’s Modified Eagle Medium (DMEM) supplemented with 10% fetal bovine serum (FBS) and Penicillin-Streptomycin (0.2 U/mL) (all from Gibco/Life Technologies, Grand Island, NY, USA). The cells were seeded on 96-well plates at 3 × 10^4 cells/mL and treated with the drugs for 72 h of incubation time. Following the treatments, cells were washed with saline solution twice, and cell viability was determined by the AlamarBlue assay (Thermo Fisher Scientific, Carlsbad, CA, USA), according to the manufacturer’s instructions. Colorimetric readings were performed after 24 h at 570 and 600 nm. Fifty-percent cytotoxic concentration (CC50) values were calculated using data points gathered from three independent experiments.
(Alamar Blue is a resazurin reagent that responds to reducing activity.)

Data set [4] can be described thus: Host cell toxicity (AlamarBlue). Format: cell-based, human. As to conditions: human, hFIB viability 72 h after treatment, read-out: hFIB CC50 ± SEM. The procedure:
as §1

Data set [5] deals with amastigote forms of T. cruzi in infected hFIB. Put plainly: In vitro drug combination of compound 2 and benznidazole in infected hFIB (Chou-Talalay CI). The settings on record: Trypanosoma cruzi, 72 h, read-out: EC50 ± SD, alone. The class given is cell-based. As for the experimental part: The culture was washed with saline solution and infected with trypomastigotes (10 parasites:1 host cell). Following 24 h of incubation, the non-internalized parasites were removed by washing with saline solution, and fresh medium, with or without compounds at different concentrations, was added to the culture before the incubations proceeded for 72 h. Cells were then fixed and stained by the addition of 50 μL of a solution containing 4% paraformaldehyde and 4 μM Draq5 DNA dye (BioStatus, Shepshed, UK) per well. Plates were imaged in an Operetta High Content Imaging System (PerkinElmer, Waltham, MA, USA) confocal microscope using a 10X air objective. Nine images were collected from each well for reliable statistical analysis. The percentage of intracellular parasites was determined and compared to the negative control, and compound antiparasitic activity was also expressed as EC50. The reference drug, benznidazole, was used as the positive control at 50 µM. Each drug concentration was carried out in triplicate.

In the next data set the target is TcSir2rp1 (Trypanosoma cruzi, UniProt Q4DVL9). The experiment in a line: TcSir2rp1 deacetylase activity assay (fluorogenic peptide, NAD+). The class given is biochemical. As to conditions: recombinant enzyme; 30 min pre-incubation; sirtuin activity determined 4 h after incubation; read-out: TcSir2rp1 EC50 ± SEM.
Chain of TcSir2rp1 (Q4DVL9 entry or part of it): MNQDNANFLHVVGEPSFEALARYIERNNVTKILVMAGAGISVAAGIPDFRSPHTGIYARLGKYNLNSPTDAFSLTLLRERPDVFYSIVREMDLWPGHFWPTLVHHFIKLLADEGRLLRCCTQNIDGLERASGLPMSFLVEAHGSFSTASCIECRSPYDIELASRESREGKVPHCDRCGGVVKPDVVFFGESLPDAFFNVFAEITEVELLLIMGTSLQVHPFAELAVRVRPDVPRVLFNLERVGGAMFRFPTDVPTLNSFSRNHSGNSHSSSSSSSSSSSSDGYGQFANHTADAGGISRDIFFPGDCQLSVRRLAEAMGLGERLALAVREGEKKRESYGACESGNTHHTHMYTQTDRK
The next data set addresses TcSir2rp3 (Trypanosoma cruzi, UniProt Q4E5B9, K2R). The experiment in a line: TcSir2rp3 deacetylase activity assay (fluorogenic peptide, NAD+). The class given is biochemical. The procedure:
Recombinant TcSir2rp3 was obtained as described previously by. The TcSir2rp3 gene was amplified from the genomic DNA of the T. cruzi Y strain using the oligonucleotides TcSir2rp3_BamHI_F_5′-[…] AGG-3′ and TcSir2rp3_XhoI_R_5′-[…]-3′ and cloned into pET28a (Novagen, Itapira, Brazil). The recombinant vector was used to transform ArcticExpress DE3 bacteria (Agilent Technologies) and protein was expressed by induction with 0.1 mM IPTG at 12 °C.
Deacetylase assays were performed from the protocol established previously by. In summary, the reaction was performed in two steps. In the first step, a synthetic peptide as the substrate (Abz-Gly-Pro-acetyl-Lys-Ser-Gln-EDDnp, where Abz is ortho-aminobenzoic acid and EDDnp is N-[2,4-dinitrophenyl]ethylenediamine) was dissolved in 50 µL of 25 mM Tris-HCl (pH 8.0), 137 mM NaCl, 2.7 mM KCl, and 1 mM MgCl2 containing 0.6 mM NAD^+ (Sigma-Aldrich). TcSir2rp1 or TcSir2rp3 were added and the reactions performed for 4 h at 30 °C. In the inhibition experiments, the enzyme was pre-treated for 30 min at room temperature with the indicated compounds and the addition of the substrate started the reaction. […] After further incubation for 15 min, the fluorescence at 420 nm was read (excitation, 320 nm) in a SpectraMax M3 plate reader (Molecular Devices, Sunnyvale, CA, USA).

Where [6] appears, read: Y strain, 24 h after incubation with compounds.
The mark [7] stands for this setting: infected hFIB, 72 h after treatment.
The mark [8] stands for this setting: human primary skin fibroblasts (hFIB).
The mark [9] stands for this setting: Trypanosoma cruzi, 72 h, infected hFIB, 72 h after treatment.

Chain of TcSir2rp3 (Q4E5B9 whole entry K2R): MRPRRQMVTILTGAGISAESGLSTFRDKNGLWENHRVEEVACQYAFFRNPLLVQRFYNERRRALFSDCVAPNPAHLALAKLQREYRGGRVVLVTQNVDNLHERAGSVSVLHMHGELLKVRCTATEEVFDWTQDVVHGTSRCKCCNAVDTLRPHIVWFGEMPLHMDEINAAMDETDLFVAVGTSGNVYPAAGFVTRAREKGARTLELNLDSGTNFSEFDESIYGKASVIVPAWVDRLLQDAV
Procedure for TcSir2rp1: Deacetylase assays were performed from the protocol established previously by [8]. In summary, the reaction was performed in two steps. In the first step, a synthetic peptide as the substrate (Abz-Gly-Pro-acetyl-Lys-Ser-Gln-EDDnp, where Abz is ortho-aminobenzoic acid and EDDnp is N-[2,4-dinitrophenyl]ethylenediamine) was dissolved in 50 µL of 25 mM Tris-HCl (pH 8.0), 137 mM NaCl, 2.7 mM KCl, and 1 mM MgCl2 containing 0.6 mM NAD^+ (Sigma-Aldrich). TcSir2rp1 or TcSir2rp3 were added and the reactions performed for 4 h at 30 °C. In the inhibition experiments, the enzyme was pre-treated for 30 min at room temperature with the indicated compounds and the addition of the substrate started the reaction. In the second step, the reactions were stopped with 50 µL of a solution containing 12 mM nicotinamide in 100 mM NaCl and 50 mM Tris-HCl (pH 8.0), in the absence or presence of 0.6 mg/mL trypsin (Sigma-Aldrich). After further incubation for 15 min, the fluorescence at 420 nm was read (excitation, 320 nm) in a SpectraMax M3 plate reader (Molecular Devices, Sunnyvale, CA, USA).

For orientation: EC50 means the midpoint of the concentration-response curve. Broadly, the CC50 is the concentration that lowers cell viability or growth by half. With “3-(8Z)-8-Pentadecen-1-ylphenol [Compound 4]”, the values for the EC50 in data set [1] (setting [6]) and in data set [2] (setting [7]) were 43.5 ± 2.32 µM and 15.3 ± 2 µM, respectively. Further, the CC50 in data set [3] came to 45.47 ± 0.27 µM.
Regarding `O=C(Cn1ccnc1[N+](=O)[O-])NCc1ccccc1` [Benznidazole, reference compound], the EC50 worked out at 11.4 ± 1.09 µM in data set [1] (Trypanosoma cruzi, Y strain, 24 h after incubation with compounds); 3.13 ± 0.87 µM in data set [2] (Trypanosoma cruzi, 72 h); 2170 ± 90 nM in data set [5]. Further, the CC50 at 72 h in data set [4] (setting [8]) is > 100 µM. In data set [3], the “SI (selectivity index), ratio of CC50 (hFIB) to EC50 (amastigote)” value is >32.
Take `C=CC/C=C\C/C=C\CCCCCCCc1cc(O)cc(O)c1` [Compound 1, 5-(8Z,11Z)-8,11,14-Pentadecatrien-1-yl-1,3-benzenediol]: the EC50 in data set [1] (Trypanosoma cruzi, 24 h) came out at 23.36 ± 0.12 µM; in data set [2] (setting [9]), 11.8 ± 0.4 µM. In data set [4], the CC50 at 72 h is 47.17 ± 0.1 µM. Besides, in data set [3], the “SI (selectivity index), ratio of CC50 (hFIB) to EC50 (amastigote)” value came to 4.
On to `CCC/C=C\C/C=C\CCCCCCCc1cccc(O)c1C(=O)O` [Compound 5, 2-Hydroxy-6-(8Z,11Z)-8,11-pentadecadien-1-ylbenzoic acid], for which the EC50 at TcSir2rp1 was 23.3 ± 2.51 µM; at TcSir2rp3 it was 6.08 ± 1.16 µM; in data set [2] (setting [9]) it was ~40 µM; in data set [2] (setting [7]) it was 41.7 ± 5.53 µM. The “Trypomastigote EC50 ± SEM” value in data set [1] (setting [6]) is given as “no effect”. In addition, the CC50 at 72 h in data set [4] (setting [8]) was > 100 µM. In data set [3], the “hFIB CC50 ± SEM” value was “not toxic”.
Regarding `CCCCCC/C=C\CCCCCCCc1cccc(O)c1C(=O)O` [Compound 6, 2-Hydroxy-6-(8Z)-8-pentadecenylbenzoic acid], the EC50 at TcSir2rp1 is 16.2 ± 4.88 µM; on TcSir2rp3 it was 7.41 ± 0.65 µM; in data set [2] (setting [9]), ~40 µM; in data set [2] (setting [7]), 42.4 ± 5.11 µM. In addition, the “Trypomastigote EC50 ± SEM” value in data set [1] (setting [6]) is recorded as “no effect”. For the same molecule, the CC50 at 72 h in data set [4] (setting [8]) was > 100 µM. Further, the “hFIB CC50 ± SEM” value in data set [3] is given as “not toxic”.

The record behind these values is paper PMC6479711, “Chemical Constituents of Anacardium occidentale as Inhibitors of Trypanosoma cruzi Sirtuins” (Molecules, 2019).
